Values after ≈ are worked out from the molar mass of the structure shown. Where two headings read alike, the source gives them in different places.

The test system of series [1] is asthma. To be noted: pharmacological aspect; cited from earlier work.
Series [2] has as its system asthma. Description: Anti-asthmatic activity (Goose, Immunology, 16, 749, 1969). In kind it is in vivo. The text has this:
(§1) Coming now to examining the anti-asthmatic pharmaceutical compositions it has been ascertained that the compound described as D-2-bromo-6-methyl-8beta-(morpholinocarbolynoxymethyl)-ergoline, corresponding to the formula (4) is endowed with quite special [drawing 81] which render it particularly recommendable for the therapy of asthma. The compound of the formula (4) has the empirical formula C21 H26 N3 O3 Br and a mol. wt. of 448.38. It gives, with mineral and organic acid of nontoxic and pharmacologically acceptable nature, a number of salt. These are soluble in water as well as in the physiological solutions. Such are for example the maleate C25 H30 N3 O7 Br, m.p. 213° C.-216° C., or the methanesulfonate C22 H30 N3 O6 BrS, m.p. 265° C.-266° C. and can be prepared according to the conventional methods by treating the compound (4) with the equivalent quantities of the acid in an aqueous medium or in appropriate organic solvents and their mixtures such as the alcohols, the ethers, the lower aliphatic ketones and others, taken individually or in appropriate mixtures with each other as will be detailed in the Examples hereinafter. The pharmacological activity of the compound of formula (4) is unfolded in appropriate assays, carried out on the test animals and is especially conspicuous in the following test runs:
Goose, Sodium ED100 5 mg/kg intrav.

Series [3] concerns alpha-adrenergic receptors. The experiment in a line: Antiadrenalic (antiadrenergic) activity in vitro (a): antagonism of the spasmogenic effect of adrenaline on the seminal vesicle. In kind it is cell-based, guinea pig. The text has this: More particularly the novel compounds display a vasodilatory activity on the peripheral circulatory system, an hypotensive activity and a spasmolytic effect on the gastrointestinal smooth muscles or a blocking activity towards the alpha-adrenergic receptors, both in "vitro" and in "vivo".
(a) J. Brugger, Helv. Physiol. Pharmacol. Acta 3, 117 (1945)
The product is antagonizing the spasmogenic effect of the adrenaline on the seminal vesicle of guinea pig at concentrations of between 0.1 and 10 pg/ml, as well as the vaso- constricting effect of the noradrenaline on the isolated and perfused caudal arteria of rat, at dosages of between 1 and 10 μg total. Furthermore it antagonizes the contracturing effect of adrenaline and noradrenaline on the "vas deferens" of guinea pig and rat, at concentrations of 0.1 to 10 ng/ml.

The test system of series [4] is alpha-adrenergic receptors. Description: Antiadrenalic activity in vivo (b): protection of rats from the lethal effect of adrenaline. Details: species or system rat. As to conditions: e.v.; Table 2.
The test system of the next series is adrenergic activity. The experiment in a line: Adrenergic activity of compound (4) in vitro. In kind it is cell-based. From the text: All of these activities of an accessorial nature which unfold themselves at dosages which are considerably higher than those which cause the antiasthmatic effect, should be regarded as favorable factors in the sense that they improve the pharmacological pattern of the product, so that a possible therapeutic use of the product for patients suffering from asthma, […], can be forecast.

In series [5] the test system is isolated ileum of guinea pig. Description: AntiBaCl2 activity in vitro (c): antagonism of the spasmogenic action of barium chloride on the isolated ileum. In kind it is cell-based. To be noted: Cavia porcellus, read-out: AntiBaCl2 (c) vitro EC50. On the procedure:
(c) Magnus, Pflugers Arch.Ges.Physiol. 102, 123 (1904)
The substance antagonizes the spasmogenic action of the barium chloride on the isolated ileum of guinea pig at dosages of between 1 and 5 μg/ml. […] On the isolated caudal arteria of rat, the compound II inhibits the vaso-constricting effect as caused by the perfusion with hyperpotassium Ringer's solution.

The next series can be described thus: Acute toxicity in mice. In kind it is in vivo, mouse. To be noted: mouse, in vivo, mouse. From the text: |Toxicity LD50 mice orally
The test system of another series is Myorelaxing activity. The experiment in a line: Myorelaxing activity. In kind it is in vivo.
Description: as §1, with “runs: […]” for “runs:”

The subject of the next series is Antidepressant activity. Description: Antidepressant activity. In kind it is in vivo.
Description: as §1, with “runs: […]” for “runs:”

Regarding `O=C(O)c1cc(=O)c2c(OCC(O)COc3cccc4oc(C(=O)O)cc(=O)c34)cccc2o1` [Sodium chromoglycate, reference compound], the “route by which the anti-asthmatic activity is manifested” value in the series on asthma [1] was “manifested only by the parentheral administration (intravenously), and, in man by inhalation of the dispersed powder”. Moreover, the ED100 in the series on asthma [2] (iv, intrav.) is 5 mg/kg.

For the compound `CN1C[C@H](COC(=O)N2CCOCC2)C[C@@H]2c3cccc4[nH]c(Br)c(c34)C[C@H]21` [Example 16, D-2-bromo-6-methyl-8beta-(morpholinocarbonyloxymethyl)-ergoline], the “Antiadrenalic activity (a) vitro EC50” value in series [3] is 0.0058 µg/mL. Also, the “Antiadrenalic activity (b) vivo ED50” value in series [4] worked out at 0.0419 mg/kg. For the same compound, in the series on adrenergic activity, the “adrenergic activity in vitro” value was “powerful adrenergic activity”. Also, in series [5], the EC50 was found to be 7.5 µg/mL (≈ 16.7 µM). In addition, the LD50 was 20.5 mg/kg in the series “Acute toxicity in mice” (iv, e.v., Table 2, read-out: DL50 e.v. in the mouse); 18 to 22 mg/kg in the series “Acute toxicity in mice” (iv, mice, intrav., compound (4), read-out: Toxicity LD50 mice intrav.); 180 mg/kg in the series “Acute toxicity in mice” (po, mice, orally, compound (4), read-out: Toxicity LD50 mice orally). In addition, the selectivity ratio in “Acute toxicity in mice” (margin of safety, read-out: multiple of the therapeutic dosage beyond which toxic effects become apparent) was above 1000. The “dosage level of anti-asthmatic action compared with sodium chromoglycate” value in the series with asthma [2] (by the oral route) is on record as “considerably lower dosage levels”. In the series on asthma [2] (in vivo), the “activity against asthmatic seizures in words” value is “both selectivity and a powerful activity against asthmatic seizures”. The ED100 in the series with asthma [2] (po, orally) turned out to be 0.25 mg/kg; in the series with Myorelaxing activity (route not given) it was 100 mg/kg; with Antidepressant activity (po, orally), 5 mg/kg. In the series on Myorelaxing activity (versus phenobarbital), the “myorelaxing activity in words” value is recorded as “remarkable myorelaxing activity which is comparable to that of phenobarbital”. For the same compound, in the series on Antidepressant activity (versus imipramine), the “antidepressant activity in words” value is listed as “considerable antidepressant activity which can be compared to that of imipramine”.

The term EC50 denotes the midpoint of the concentration-response curve.
